In PMC5218480 (PLoS ONE, 2017):

Test system: MV-4-11 cells
Test: Gene expression microarray analysis (Affymetrix PrimeView) and GSEA
Format: cell-based, human
Design: RFU PODN (11730768_x_at) / Fold change /veh PODN (11730768_x_at) / RFU LINC00158 (11744669_a_at) / Fold change /veh LINC00158 (11744669_a_at) / RFU DUSP10 (11751237_a_at) / Fold change /veh DUSP10 (11751237_a_at) / RFU ID3 (11757404_x_at) / Fold change /veh ID3 (11757404_x_at) / RFU PLEKHG5 (11737974_s_at) / Fold change /veh PLEKHG5 (11737974_s_at) / RFU LRRC4B (11730491_at) / Fold change /veh LRRC4B (11730491_at) / RFU GIMAP4 (11747438_a_at) / Fold change /veh GIMAP4 (11747438_a_at) / RFU KRT8 (11758183_x_at) / Fold change /veh KRT8 (11758183_x_at) / RFU CNN1 (11734310_a_at) / Fold change /veh CNN1 (11734310_a_at) / RFU VPS37D (11726825_at) / Fold change /veh VPS37D (11726825_at) / RFU C10orf10 (11716522_x_at) / Fold change /veh C10orf10 (11716522_x_at) / RFU KIR2DL2 /// KIR2DL4 /// KIR2DL5A /// KIR2DL5B /// KIR2DS1 /// KIR2DS2 /// KIR2DS3 /// KIR2DS4 /// KIR3DL3 /// KIR3DL3 /// KIR3DS1 (11738374_at) / Fold change /veh KIR2DL2 /// KIR2DL4 /// KIR2DL5A /// KIR2DL5B /// KIR2DS1 /// KIR2DS2 /// KIR2DS3 /// KIR2DS4 /// KIR3DL3 /// KIR3DL3 /// KIR3DS1 (11738374_at) / RFU C1QL1 (11718748_at) / Fold change /veh C1QL1 (11718748_at) / RFU TMPRSS4 (11747572_a_at) / Fold change /veh TMPRSS4 (11747572_a_at) / RFU HAMP (11756126_x_at) / Fold change /veh HAMP (11756126_x_at) / RFU RNFT2 (11725882_a_at) / Fold change /veh RNFT2 (11725882_a_at) / RFU NR4A2 (11747474_a_at) / Fold change /veh NR4A2 (11747474_a_at) / RFU ABCC12 (11746883_a_at) / Fold change /veh ABCC12 (11746883_a_at) / RFU TMEM136 (11760407_x_at) / Fold change /veh TMEM136 (11760407_x_at) / RFU CLDN22 /// WWC2 (11732394_at) / Fold change /veh CLDN22 /// WWC2 (11732394_at) / RFU HLA-DPB1 (11760878_x_at) / Fold change /veh HLA-DPB1 (11760878_x_at) / RFU SPINT1 (11716480_a_at) / Fold change /veh SPINT1 (11716480_a_at) / RFU GAP43 (11754022_s_at) / Fold change /veh GAP43 (11754022_s_at) / RFU A4GNT (11735810_at) / Fold change /veh A4GNT (11735810_at) / RFU PRB3 (11715151_x_at) / Fold change /veh PRB3 (11715151_x_at) / RFU TUBB4B (11761932_at) / Fold change /veh TUBB4B (11761932_at) / RFU CAPN14 (11732068_a_at) / Fold change /veh CAPN14 (11732068_a_at) / RFU TMCC2 (11721928_a_at) / Fold change /veh TMCC2 (11721928_a_at) / RFU IRGQ (11745062_a_at) / Fold change /veh IRGQ (11745062_a_at) / RFU FAM174B (11720279_a_at) / Fold change /veh FAM174B (11720279_a_at) / RFU TMPRSS4 (11748680_a_at) / Fold change /veh TMPRSS4 (11748680_a_at) / RFU FAM212B (11763350_a_at) / Fold change /veh FAM212B (11763350_a_at) / RFU PLEKHG5 (11743358_a_at) / Fold change /veh PLEKHG5 (11743358_a_at) / RFU ZSCAN30 (11745921_a_at) / Fold change /veh ZSCAN30 (11745921_a_at) / RFU CMKLR1 (11741424_a_at) / Fold change /veh CMKLR1 (11741424_a_at) / RFU LOC101060620 /// MAPK8IP1 (11723275_at) / Fold change /veh LOC101060620 /// MAPK8IP1 (11723275_at) / RFU SPTSSB (11747773_x_at) / Fold change /veh SPTSSB (11747773_x_at) / RFU PRSS12 (11739890_at) / Fold change /veh PRSS12 (11739890_at) / RFU BIN1 (11741810_x_at) / Fold change /veh BIN1 (11741810_x_at) / RFU WNT11 (11732464_a_at) / Fold change /veh WNT11 (11732464_a_at) / RFU C10orf10 (11716521_a_at) / Fold change /veh C10orf10 (11716521_a_at) / RFU C5orf56 (11738089_at) / Fold change /veh C5orf56 (11738089_at) / RFU CYB561 (11721691_x_at) / Fold change /veh CYB561 (11721691_x_at) / RFU ANKRD19P (11752326_a_at) / Fold change /veh ANKRD19P (11752326_a_at) / RFU OR2T12 /// OR2T33 /// OR2T8 (11738714_s_at) / Fold change /veh OR2T12 /// OR2T33 /// OR2T8 (11738714_s_at) / RFU VCAN (11748164_a_at) / Fold change /veh VCAN (11748164_a_at) / RFU JSRP1 (11732532_at) / Fold change /veh JSRP1 (11732532_at) / RFU KRTAP10-11 (11738290_x_at) / Fold change /veh KRTAP10-11 (11738290_x_at) / RFU MYO3A (11730013_a_at) / Fold change /veh MYO3A (11730013_a_at) / RFU EBF3 (11725865_a_at) / Fold change /veh EBF3 (11725865_a_at) / RFU CAMK2N1 (11719241_x_at) / Fold change /veh CAMK2N1 (11719241_x_at) / RFU C5orf56 (11738088_a_at) / Fold change /veh C5orf56 (11738088_a_at) / RFU OLFML3 (11715873_a_at) / Fold change /veh OLFML3 (11715873_a_at) / RFU LOC100653217 /// NTM (11731650_a_at) / Fold change /veh LOC100653217 /// NTM (11731650_a_at) / RFU MAPK11 (11762145_a_at) / Fold change /veh MAPK11 (11762145_a_at) / RFU FIZ1 (11724087_x_at) / Fold change /veh FIZ1 (11724087_x_at) / RFU OASL (11726364_x_at) / Fold change /veh OASL (11726364_x_at) / RFU SOX15 (11748057_x_at) / Fold change /veh SOX15 (11748057_x_at) / RFU CD79A (11719716_a_at) / Fold change /veh CD79A (11719716_a_at) / RFU HIST1H1D (11736915_at) / Fold change /veh HIST1H1D (11736915_at) / RFU CASKIN2 (11723855_a_at) / Fold change /veh CASKIN2 (11723855_a_at) / RFU LOC730098 (11760151_x_at) / Fold change /veh LOC730098 (11760151_x_at) / RFU OR4N2 (11742367_at) / Fold change /veh OR4N2 (11742367_at) / RFU PRRT2 (11749266_a_at) / Fold change /veh PRRT2 (11749266_a_at) / RFU SNX32 (11753110_a_at) / Fold change /veh SNX32 (11753110_a_at) / RFU CDHR5 (11726645_a_at) / Fold change /veh CDHR5 (11726645_a_at) / RFU RCAN1 (11760418_a_at) / Fold change /veh RCAN1 (11760418_a_at) / RFU FAM167A (11723789_a_at) / Fold change /veh FAM167A (11723789_a_at) / RFU FAM26E (11764081_at) / Fold change /veh FAM26E (11764081_at) / RFU ISYNA1 (11749810_s_at) / Fold change /veh ISYNA1 (11749810_s_at) / RFU ACY1 (11761880_at) / Fold change /veh ACY1 (11761880_at) / RFU 11764098_at / Fold change /veh 11764098_at / RFU SAMD14 (11745864_x_at) / Fold change /veh SAMD14 (11745864_x_at) / RFU NPB (11741838_a_at) / Fold change /veh NPB (11741838_a_at) / RFU TMPRSS6 (11731388_a_at) / Fold change /veh TMPRSS6 (11731388_a_at) / RFU KRTAP10-2 (11738614_at) / Fold change /veh KRTAP10-2 (11738614_at) / RFU ARHGAP8 /// PRR5-ARHGAP8 (11727945_x_at) / Fold change /veh ARHGAP8 /// PRR5-ARHGAP8 (11727945_x_at) / RFU KRTAP5-7 /// NADSYN1 (11734609_at) / Fold change /veh KRTAP5-7 /// NADSYN1 (11734609_at) / RFU RASL12 (11751679_a_at) / Fold change /veh RASL12 (11751679_a_at) / RFU CDKN2B (11736163_a_at) / Fold change /veh CDKN2B (11736163_a_at) / RFU PRF1 (11729649_at) / Fold change /veh PRF1 (11729649_at) / RFU, ZNF638 /// ZNF638-IT1 / Fold change vs veh, ZNF638 /// ZNF638-IT1 / RFU, PANK3 / Fold change vs veh, PANK3 / RFU, SH3YL1 / Fold change vs veh, SH3YL1 / RFU, ZEB2 / Fold change vs veh, ZEB2 / RFU, NRIP1 / Fold change vs veh, NRIP1 / RFU, PTTG1IP / Fold change vs veh, PTTG1IP / RFU, CAPN2 / Fold change vs veh, CAPN2 / RFU, MED14 / Fold change vs veh, MED14 / RFU, SNORA58 / Fold change vs veh, SNORA58 / RFU, C1orf63 / Fold change vs veh, C1orf63 / RFU, LRRFIP1 / Fold change vs veh, LRRFIP1 / RFU, NDUFAF7 / Fold change vs veh, NDUFAF7 / RFU, SLC12A2 / Fold change vs veh, SLC12A2 / RFU, IBTK / Fold change vs veh, IBTK / RFU, ESF1 / Fold change vs veh, ESF1 / Fold change vs veh, TMEM50B / RFU, TAOK1 / Fold change vs veh, TAOK1 / RFU, ACBD3 / Fold change vs veh, ACBD3 / RFU, TMA16 / Fold change vs veh, TMA16 / RFU, RWDD3 / Fold change vs veh, RWDD3 / RFU, BCAT1 / Fold change vs veh, BCAT1 / RFU, EDEM3 / Fold change vs veh, EDEM3 / RFU, TMEM33 / Fold change vs veh, TMEM33 / RFU, WDR75 / Fold change vs veh, WDR75 / RFU, AHCTF1 / Fold change vs veh, AHCTF1 / RFU, TFRC / Fold change vs veh, TFRC / RFU, ZDHHC17 / Fold change vs veh, ZDHHC17 / RFU, NOM1 / Fold change vs veh, NOM1 / RFU, ARL8B / Fold change vs veh, ARL8B / RFU, ZBTB11 / Fold change vs veh, ZBTB11 / RFU, TAMM41 / Fold change vs veh, TAMM41 / RFU, KIAA1704 /// LOC100996395 / Fold change vs veh, KIAA1704 /// LOC100996395 / RFU, ING1 / Fold change vs veh, ING1 / RFU, TRMT61B / Fold change vs veh, TRMT61B / RFU, FUBP3 / Fold change vs veh, FUBP3 / RFU, TP53 / Fold change vs veh, TP53 / RFU, TNKS2 / Fold change vs veh, TNKS2 / RFU, ZFP14 / Fold change vs veh, ZFP14 / RFU, ACTR2 / Fold change vs veh, ACTR2 / RFU, PPP3R1 / Fold change vs veh, PPP3R1 / RFU, PIK3R1 / Fold change vs veh, PIK3R1 / RFU, HNRNPA1 / Fold change vs veh, HNRNPA1 / RFU, RNF170 / Fold change vs veh, RNF170 / RFU, ZNF28 / Fold change vs veh, ZNF28 / RFU, RNGTT / Fold change vs veh, RNGTT / RFU, OGT / Fold change vs veh, OGT / RFU, BRD1 / Fold change vs veh, BRD1 / RFU, MARS / Fold change vs veh, MARS / RFU, ZNF655 / Fold change vs veh, ZNF655 / RFU, FAHD1 / Fold change vs veh, FAHD1 / RFU, BDP1 / Fold change vs veh, BDP1 / RFU, LRRCC1 / Fold change vs veh, LRRCC1 / RFU, ARID1A / Fold change vs veh, ARID1A / RFU, ZNF146 / Fold change vs veh, ZNF146 / RFU, ZNF330 / Fold change vs veh, ZNF330 / RFU, GPN3 / Fold change vs veh, GPN3 / RFU, C9orf123 / Fold change vs veh, C9orf123 / RFU, N4BP2L2 / Fold change vs veh, N4BP2L2 / RFU, ARFIP1 / Fold change vs veh, ARFIP1 / RFU, FAM179B / Fold change vs veh, FAM179B / RFU, BCL10 / Fold change vs veh, BCL10 / RFU, UHRF1BP1L / Fold change vs veh, UHRF1BP1L / RFU, BET1 / Fold change vs veh, BET1 / RFU, CNOT2 / Fold change vs veh, CNOT2 / RFU, ZNF268 / Fold change vs veh, ZNF268 / Fold change vs veh, ZNF507 / RFU, DGCR2 / Fold change vs veh, DGCR2 / RFU, WDSUB1 / Fold change vs veh, WDSUB1 / Fold change vs veh, HSP90B1 /// MIR3652 / RFU, ADSS / Fold change vs veh, ADSS / RFU, GK / Fold change vs veh, GK / RFU, ZNF148 / Fold change vs veh, ZNF148 / RFU, TAF9 / Fold change vs veh, TAF9 / RFU, SLC1A5 / Fold change vs veh, SLC1A5 / RFU, SLMO2 / Fold change vs veh, SLMO2 / RFU, ABCC4 / Fold change vs veh, ABCC4 / RFU, LOC101060439 /// RAP1B / Fold change vs veh, LOC101060439 /// RAP1B / RFU, RFX7 / Fold change vs veh, RFX7 / RFU, GTPBP10 / Fold change vs veh, GTPBP10 / RFU, CNEP1R1 / Fold change vs veh, CNEP1R1 / RFU, BIVM-ERCC5 /// ERCC5 / Fold change vs veh, BIVM-ERCC5 /// ERCC5 / RFU, ILF3 / Fold change vs veh, ILF3 / RFU 11762660_at / Fold change /veh 11762660_at / RFU VCAN (11757783_s_at) / Fold change /veh VCAN (11757783_s_at) / RFU DDX43 (11728927_at) / Fold change /veh DDX43 (11728927_at) / RFU KRT8 (11758188_x_at) / Fold change /veh KRT8 (11758188_x_at) / RFU NKD1 (11759106_at) / Fold change /veh NKD1 (11759106_at) / RFU SRD5A1 (11742802_a_at) / Fold change /veh SRD5A1 (11742802_a_at) / RFU TPSAB1 /// TPSB2 (11721975_s_at) / Fold change /veh TPSAB1 /// TPSB2 (11721975_s_at) / RFU GSTM3 (11746129_a_at) / Fold change /veh GSTM3 (11746129_a_at) / RFU IL23R (11737362_x_at) / Fold change /veh IL23R (11737362_x_at) / RFU TMEM51 (11727254_a_at) / Fold change /veh TMEM51 (11727254_a_at) / RFU PIWIL2 (11732686_x_at) / Fold change /veh PIWIL2 (11732686_x_at) / RFU ORM1 (11744905_x_at) / Fold change /veh ORM1 (11744905_x_at) / RFU CCDC152 (11743942_at) / Fold change /veh CCDC152 (11743942_at) / RFU ECM1 (11717891_a_at) / Fold change /veh ECM1 (11717891_a_at) / RFU IL23R (11748794_a_at) / Fold change /veh IL23R (11748794_a_at) / RFU TNFAIP8L3 (11732012_x_at) / Fold change /veh TNFAIP8L3 (11732012_x_at) / RFU MBOAT4 (11741988_at) / Fold change /veh MBOAT4 (11741988_at) / RFU 11764193_at / Fold change /veh 11764193_at / RFU TMEM53 (11763286_at) / Fold change /veh TMEM53 (11763286_at) / RFU MAGEB2 (11727129_at) / Fold change /veh MAGEB2 (11727129_at) / RFU TMEM200A (11744735_a_at) / Fold change /veh TMEM200A (11744735_a_at) / RFU CCDC152 (11751479_a_at) / Fold change /veh CCDC152 (11751479_a_at) / RFU FAM211A (11726209_a_at) / Fold change /veh FAM211A (11726209_a_at) / RFU RGS16 (11746705_a_at) / Fold change /veh RGS16 (11746705_a_at) / RFU VCAN (11755009_s_at) / Fold change /veh VCAN (11755009_s_at) / RFU RHOB (11743442_s_at) / Fold change /veh RHOB (11743442_s_at) / RFU RGS16 (11720943_a_at) / Fold change /veh RGS16 (11720943_a_at) / RFU RGS16 (11720944_at) / Fold change /veh RGS16 (11720944_at) / RFU, VPS4B / Fold change vs veh, VPS4B / RFU, CREB1 / Fold change vs veh, CREB1 / RFU, DNAJC13 / Fold change vs veh, DNAJC13 / RFU, GNAQ / Fold change vs veh, GNAQ / RFU, CDK5R1 / Fold change vs veh, CDK5R1 / RFU, ZRANB3 / Fold change vs veh, ZRANB3 / RFU, CUL4A / Fold change vs veh, CUL4A / RFU, CCNY / Fold change vs veh, CCNY / RFU, UFL1 / Fold change vs veh, UFL1 / RFU, COG3 / Fold change vs veh, COG3 / RFU, DIAPH2 / Fold change vs veh, DIAPH2 / RFU, SKA2 / Fold change vs veh, SKA2 / RFU, AFF3 / Fold change vs veh, AFF3 / RFU, LMF1 / Fold change vs veh, LMF1 / RFU, IPO11 / Fold change vs veh, IPO11 / RFU, DFFB / Fold change vs veh, DFFB / RFU, FOXP1 / Fold change vs veh, FOXP1 / RFU, CARD8 / Fold change vs veh, CARD8 / RFU, STRN3 / Fold change vs veh, STRN3 / RFU, ADK / Fold change vs veh, ADK / RFU, RASSF2 / Fold change vs veh, RASSF2 / RFU, WIPF1 / Fold change vs veh, WIPF1 / RFU, LARP1B / Fold change vs veh, LARP1B / RFU, RASA1 / Fold change vs veh, RASA1 / RFU, RB1 / Fold change vs veh, RB1 / RFU, PPFIA1 / Fold change vs veh, PPFIA1 / RFU, MAT2A / Fold change vs veh, MAT2A / RFU, CCT5 / Fold change vs veh, CCT5 / RFU, WDR92 / Fold change vs veh, WDR92 / RFU, CUX1 / Fold change vs veh, CUX1 / RFU, TTC7A / Fold change vs veh, TTC7A / RFU, TMEM135 / Fold change vs veh, TMEM135 / RFU, DEPTOR / Fold change vs veh, DEPTOR / RFU, CPM / Fold change vs veh, CPM / RFU, DNAJB6 / Fold change vs veh, DNAJB6 / RFU, CACNA2D3 / Fold change vs veh, CACNA2D3 / RFU, DTX4 / Fold change vs veh, DTX4 / RFU, TFCP2 / Fold change vs veh, TFCP2 / RFU, GMCL1 /// GMCL1P1 / Fold change vs veh, GMCL1 /// GMCL1P1 / RFU, AEBP2 / Fold change vs veh, AEBP2 / RFU, SNHG1 /// SNORD22 /// SNORD25 /// SNORD26 /// SNORD27 /// SNORD28 /// SNORD29 /// SNORD31 / Fold change vs veh, SNHG1 /// SNORD22 /// SNORD25 /// SNORD26 /// SNORD27 /// SNORD28 /// SNORD29 /// SNORD31 / Fold change (Aza/veh), C12orf56 (ProbeSet 11735607_a_at) / Fold change (ACY-1035/veh), C12orf56 (ProbeSet 11735607_a_at) / Fold change (Aza/veh), FGFR1OP (ProbeSet 11751329_s_at) / Fold change (ACY-1035/veh), FGFR1OP (ProbeSet 11751329_s_at) / Fold change (Aza/veh), VPS36 (ProbeSet 11739960_a_at) / Fold change (ACY-1035/veh), VPS36 (ProbeSet 11739960_a_at) / RFU SYPL1 (11715823_x_at) / Fold change /veh SYPL1 (11715823_x_at) / RFU IGFBP7 (11715501_s_at) / Fold change /veh IGFBP7 (11715501_s_at) / RFU REEP3 (11722064_at) / Fold change /veh REEP3 (11722064_at) / RFU IGLL1 (11728026_x_at) / Fold change /veh IGLL1 (11728026_x_at): dose or concentration left out as unconfirmed
Conditions: MV-4-11 cells, 48 hours

## Nc1ncn([C@@H]2O[C@H](CO)[C@@H](O)[C@H]2O)c(=O)n1 [azacitidine]
  Fold change /veh LINC00158 (11744669_a_at): 1.04
